Values quoted from earlier work as cited in US12246054B2, “Method of treating diseases” (Amryt Endo, Inc., priority 2015, dated 2025).

Columns and labels:
[1] = system: idiopathic intracranial hypertension; details: IIH patients; injections
[2] = in vivo

In the case of `C[C@@H](O)[C@@H]1NC(=O)[C@H](CCCCN)NC(=O)[C@@H](Cc2c[nH]c3ccccc23)NC(=O)[C@H](Cc2ccccc2)NC(=O)[C@@H](NC(=O)[C@H](N)Cc2ccccc2)CSSC[C@@H](C(=O)N[C@H](CO)[C@@H](C)O)NC1=O` [octreotide], the “Patients in whom headache and papilledema subsided and visual disturbances improved (response rate)” value [1] is given as “about 90%”, the “acute rebound GH hypersecretion” value [2] is given as “absence of acute rebound GH hypersecretion” and the circulating half-life [2] is given as 2 h.
